Reference: BindingDB's records for patent US20240368161 (Cgenetech (Suzhou, China), 2024)
pIC50: −log10 of the molar value.

How the values were obtained:
[1] = target: Tyrosine-protein kinase JAK2 (Homo sapiens, UniProt O60674); experiment: JAK2 Kinase Inhibitory Activity Determination
[2] = target: T1, Tyrosine-protein kinase JAK3 (Homo sapiens, UniProt P52333); experiment: JAK3 Kinase Inhibitory Activity Determination
T1 sequence (P52333 whole entry): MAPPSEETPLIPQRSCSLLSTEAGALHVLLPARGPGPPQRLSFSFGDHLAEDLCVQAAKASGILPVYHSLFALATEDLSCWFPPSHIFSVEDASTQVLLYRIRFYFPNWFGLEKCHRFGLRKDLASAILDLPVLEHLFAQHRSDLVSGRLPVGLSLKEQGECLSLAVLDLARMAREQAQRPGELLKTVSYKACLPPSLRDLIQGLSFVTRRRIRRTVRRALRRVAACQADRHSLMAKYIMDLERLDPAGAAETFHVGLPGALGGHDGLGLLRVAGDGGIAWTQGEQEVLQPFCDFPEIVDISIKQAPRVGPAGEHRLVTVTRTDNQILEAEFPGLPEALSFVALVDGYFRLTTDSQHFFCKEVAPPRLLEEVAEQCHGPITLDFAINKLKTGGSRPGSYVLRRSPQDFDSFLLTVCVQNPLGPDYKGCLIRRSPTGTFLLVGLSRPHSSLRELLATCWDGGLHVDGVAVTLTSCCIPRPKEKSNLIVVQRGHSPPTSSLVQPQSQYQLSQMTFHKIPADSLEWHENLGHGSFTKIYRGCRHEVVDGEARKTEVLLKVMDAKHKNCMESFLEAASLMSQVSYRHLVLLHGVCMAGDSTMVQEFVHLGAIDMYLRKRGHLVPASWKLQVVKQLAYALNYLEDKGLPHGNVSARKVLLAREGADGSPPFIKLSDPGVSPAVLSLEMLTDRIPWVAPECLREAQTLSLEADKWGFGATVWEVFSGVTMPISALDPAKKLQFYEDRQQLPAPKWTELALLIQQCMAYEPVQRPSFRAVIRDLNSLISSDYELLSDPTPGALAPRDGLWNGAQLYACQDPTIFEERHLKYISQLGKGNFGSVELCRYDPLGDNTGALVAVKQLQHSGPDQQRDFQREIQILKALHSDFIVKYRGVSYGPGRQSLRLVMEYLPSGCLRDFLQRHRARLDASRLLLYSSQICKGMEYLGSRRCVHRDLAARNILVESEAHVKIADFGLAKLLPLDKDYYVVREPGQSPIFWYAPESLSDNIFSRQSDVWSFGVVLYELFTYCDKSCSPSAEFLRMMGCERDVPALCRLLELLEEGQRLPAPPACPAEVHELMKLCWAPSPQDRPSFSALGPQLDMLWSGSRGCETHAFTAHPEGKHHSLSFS
Procedure: At the end of incubation, HTRF665/620 signals were read on a multifunctional microplate reader.

[3] = target: Tyrosine-protein kinase JAK1 (Homo sapiens, UniProt P23458); experiment: JAK1 Kinase Inhibitory Activity Determination
Tyrosine-protein kinase JAK1, sequence (P23458 whole entry): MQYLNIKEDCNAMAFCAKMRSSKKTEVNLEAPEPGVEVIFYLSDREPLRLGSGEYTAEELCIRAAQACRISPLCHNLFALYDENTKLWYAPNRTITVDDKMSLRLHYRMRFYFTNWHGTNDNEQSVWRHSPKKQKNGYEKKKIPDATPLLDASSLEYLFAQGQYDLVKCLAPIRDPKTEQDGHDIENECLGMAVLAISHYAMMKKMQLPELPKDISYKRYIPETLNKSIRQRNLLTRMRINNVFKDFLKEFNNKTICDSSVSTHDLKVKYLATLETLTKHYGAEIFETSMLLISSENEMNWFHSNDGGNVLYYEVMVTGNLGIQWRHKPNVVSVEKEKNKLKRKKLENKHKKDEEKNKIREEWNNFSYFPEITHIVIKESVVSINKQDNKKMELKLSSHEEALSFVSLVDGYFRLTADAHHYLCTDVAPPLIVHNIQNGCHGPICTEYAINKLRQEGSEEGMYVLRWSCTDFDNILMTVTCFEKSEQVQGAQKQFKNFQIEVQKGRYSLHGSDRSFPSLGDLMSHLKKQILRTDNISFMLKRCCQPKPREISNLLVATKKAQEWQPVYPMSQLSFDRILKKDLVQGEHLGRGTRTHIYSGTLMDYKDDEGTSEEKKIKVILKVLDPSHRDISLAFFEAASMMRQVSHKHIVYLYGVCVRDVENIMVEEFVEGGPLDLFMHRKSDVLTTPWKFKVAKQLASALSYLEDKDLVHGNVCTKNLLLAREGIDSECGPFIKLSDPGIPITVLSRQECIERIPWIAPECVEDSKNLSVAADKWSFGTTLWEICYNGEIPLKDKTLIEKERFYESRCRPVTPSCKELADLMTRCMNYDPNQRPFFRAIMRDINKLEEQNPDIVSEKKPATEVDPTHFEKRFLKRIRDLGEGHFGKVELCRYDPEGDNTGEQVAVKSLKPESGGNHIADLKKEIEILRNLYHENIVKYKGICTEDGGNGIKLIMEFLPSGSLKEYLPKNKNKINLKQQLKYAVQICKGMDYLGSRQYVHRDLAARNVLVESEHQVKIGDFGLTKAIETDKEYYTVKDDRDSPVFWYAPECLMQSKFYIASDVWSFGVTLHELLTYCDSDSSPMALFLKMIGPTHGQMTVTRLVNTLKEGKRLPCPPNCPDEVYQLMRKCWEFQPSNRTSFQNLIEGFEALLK

Tyrosine-protein kinase JAK2, sequence (O60674 whole entry): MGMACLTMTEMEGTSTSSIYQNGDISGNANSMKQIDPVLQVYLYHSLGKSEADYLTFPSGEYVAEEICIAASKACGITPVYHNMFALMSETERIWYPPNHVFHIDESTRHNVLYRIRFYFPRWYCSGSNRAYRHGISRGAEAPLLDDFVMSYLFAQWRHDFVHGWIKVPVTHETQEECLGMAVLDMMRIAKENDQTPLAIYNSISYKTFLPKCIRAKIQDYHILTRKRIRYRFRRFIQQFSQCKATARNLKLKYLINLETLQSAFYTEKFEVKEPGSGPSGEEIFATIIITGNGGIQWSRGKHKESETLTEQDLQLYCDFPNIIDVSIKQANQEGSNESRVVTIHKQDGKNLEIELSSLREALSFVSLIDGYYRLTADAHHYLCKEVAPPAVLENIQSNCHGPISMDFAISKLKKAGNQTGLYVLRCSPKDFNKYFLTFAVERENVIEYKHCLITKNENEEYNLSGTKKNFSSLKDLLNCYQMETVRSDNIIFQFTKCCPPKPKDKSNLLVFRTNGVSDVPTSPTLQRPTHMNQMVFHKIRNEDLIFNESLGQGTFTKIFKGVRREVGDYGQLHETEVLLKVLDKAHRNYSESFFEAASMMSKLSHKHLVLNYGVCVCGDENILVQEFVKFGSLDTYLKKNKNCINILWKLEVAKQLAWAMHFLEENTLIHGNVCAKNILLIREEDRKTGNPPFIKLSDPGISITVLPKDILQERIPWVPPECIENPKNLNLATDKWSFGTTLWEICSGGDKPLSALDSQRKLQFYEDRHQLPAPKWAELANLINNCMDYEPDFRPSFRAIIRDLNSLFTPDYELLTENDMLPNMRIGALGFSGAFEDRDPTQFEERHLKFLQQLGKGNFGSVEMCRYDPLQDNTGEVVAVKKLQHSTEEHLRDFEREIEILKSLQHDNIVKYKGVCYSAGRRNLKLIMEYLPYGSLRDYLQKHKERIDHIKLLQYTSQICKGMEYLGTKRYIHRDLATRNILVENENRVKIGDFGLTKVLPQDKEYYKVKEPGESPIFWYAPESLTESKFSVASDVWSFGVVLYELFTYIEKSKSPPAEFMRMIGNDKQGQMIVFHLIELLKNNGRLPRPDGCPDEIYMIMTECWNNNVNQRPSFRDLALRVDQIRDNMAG

pIC50 [1]	pIC50 [2]	pIC50 [3]	SMILES
6.90	5.51	7.13	CS(=O)(=O)C1CCN(Cc2ccc(-c3cccc4nc(NC(=O)C5CC5)cn34)cc2)CC1 [US20240368161, Compound 16]
6.64	5.16	6.21	CCCS(=O)(=O)C1CCN(Cc2ccc(-c3cccc4nc(NC(=O)C5CC5)cn34)cc2)CC1 [US20240368161, Compound 31]
6.63	5.50	6.86	CS(=O)(=O)C1CN(Cc2ccc(-c3cccc4nc(NC(=O)C5CC5)cn34)cc2)C1 [US20240368161, Compound 15]
6.75	5.24	6.58	CS(=O)(=O)C1CCN(Cc2ccc(-c3cccc4nc(NC(=O)C5CC5)cn34)c(F)c2)CC1 [US20240368161, Compound 20]
7.14	5.84	6.90	O=C(Nc1cn2c(-c3ccc(OC4CCS(=O)(=O)CC4)cc3)cccc2n1)C1CC1 [US20240368161, Compound 17]
